Data: patent US10822317B2, “Methods and compositions for wound healing” (QBiotics Limited, priority 2013, dated 2020)

Assays:
HaCaT cells [1] = experiment: HaCaT scratch repopulation with Mitomycin C (migration study); assay type: cell-based, human; settings: with 1 μg/mL Mitomycin C; 0.001 to 1.0 μg/mL; p<0.05
[2] = test system: mouse stroma of human SK-Mel-28 xenografts; experiment: Gene expression in mouse stroma of human tumour xenografts; assay type: in vivo; settings: 30 μg intratumoural
Procedure: Mouse stroma in human tumour xenografts were obtained from mice in which the Sk-Mel-28 human melanoma cell line was injected subcutaneously into 2 sites on the flanks of each BALB/c FoxnInu mouse (2×10^6 cells/site) and allowed to grow to approximately 7 mm diameter. Each tumour was then injected with 50 μL of 20% propylene glycol containing 30 μg Compound 1 or with 50 µL of 20% propylene glycol. At different times after injection a mouse was euthanased and the tumours harvested, the skin covering removed, and the intact tumours stored at −80° C.
RNA was extracted from 30 mg of frozen tumour or 1×10^7 cells using the QiagenRNeasyPlus Mini Kit, according to manufacturer's instructions, then quantitated with a NanoDrop instrument and integrity confirmed on denaturing agarose gels bearing a 1 kb DNA marker and stained with ethidium bromide.
Approximately 500 ng of total unlabelled RNA was adjusted to a final volume of 11 μL with nuclease-free water. The RNA was incubated with 9 μL of the reverse transcriptase master mix (1 μL of T7 Oligo (dT) Primer, 2 μL of 10× first strand buffer, 4 μL of dNTP mix, 1 μL of RNase inhibitor and 1 μL of ArrayScript) at 42° C. for 2 hr. This was followed by the second strand cDNA synthesis step which involved a further incubation at 16° C. for 2 hr with 80 µL of the second strand master mix (63 μL nuclease-free water, 10 μL 10× second strand buffer, 4 μL dNTP mix, […] and 1 μL RNase H). The cDNA was purified by filtering through a cDNA Filter Cartridge with 250 μL of cDNA binding buffer and washing with 500 μL of the wash buffer provided in the kit. Purified cDNA was eluted with 20 μL of 55° C. nuclease-free water. Each cDNA sample was incubated with 7.5 μL of the IVT master mix (2.5 μL of T7 10× reaction buffer, 2.5 μL of T7 enzyme mix and 2.5 μL biotin-NTP mix) at 37° C. for 16 hr. The reaction was stopped with the addition of 75 μL of nuclease-free water to each cRNA sample. The biotinylated, amplified RNA was purified by filtering the cRNA samples through cRNA Filter Cartridges with 350 μL of cRNA binding buffer and 250 μL of 100% ethanol mixed together prior to loading onto the filters. The cRNA filter cartridges with attached RNA were then washed with 650 μL of wash buffer before eluting purified cRNA with 200 μL of 55° C. nuclease-free water.
The cRNA samples were heated at 65° C. for 5 min and collected by pulse centrifugation. After heating at 65 degrees for 5 min, approximately 750 ng of the cRNA sample was aliquoted into separate tubes to which were added ˜5 μL of RNase-free water and 10 μL of Hyb Mix. Approximately 15 μL of the prepared cRNA mix was loaded onto the Illumina Expression BeadChips. Subsequent steps of hybridisation and washing were carried out according to the Whole-Genome Gene Expression Direct Hybridization Assay Guide supplied by Illumina.
The Human HT-12 v4 Expression BeadChips cover more than 47,000 transcripts and known splice variants across the human transcriptome. The MouseRef-8 v2.0 Expression BeadChips cover approximately 25,600 well-annotated RefSeq (Reference Sequence) transcripts, comprising over 19,000 unique genes.
BeadChips were read by the iScan System, and transferred via GenomeStudio into GeneSpring GX v12.5 (Agilent Technologies, Santa Clara, Calif., USA). The expression values were normalized using quantile normalization with default settings. The entities were filtered based on the detection score calculated by GenomeStudio where p≤0.05 was considered significant.
Expression data using mouse gene-specific microarrays were performed for 2-3 individual human SK-Mel-28 xenografts treated by intratumoural injection with 30 μg of Compound 1, along with 3 vehicle-only sites, the data combined. Only those mouse genes for which expression in the Compound 1 treated site was >2 times higher or >2 times lower than in the vehicle-injected site were examined for relevance to wound healing.

HaCaT cells [3] = experiment: HaCaT proliferation (MTT); assay type: cell-based, human; design: dose or concentration left out as unconfirmed; settings: 24, 48, 120 and 168 hr; p<0.01
Text: The proliferation experiment assessed the effects of the two compounds on HaCaT proliferation (as measured by MTT) in the culture system at 4 time periods (24, 48, 120 and 168 hr).

Question: With `CC=C(C)C(=O)OC1C(C)C2(O)C(C3OC3(CO)C(O)C3(O)C(=O)C(C)=CC32)C2C(C)(C)C12OC(=O)C(C)CC` (centres unmarked) [Compound 1, 12-tigloyl-13-(2-methylbutanoyl)-6,7-epoxy-4,5,9,12,13,20-hexahydroxy-1-tigliaen-3-one] as the compound, how does the “scratch repopulation and closure (migration study)” value (HaCaT cells [1]) read?
Answer: enhanced

Question: And the “Acta1: Direction of regulation” value ([2]; 0.5 h)?
Answer: Up

Question: And the “Tgm2: Direction of regulation” value ([2]; 0.5 h)?
Answer: Up

Question: What about the “Thbs2: Direction of regulation” value ([2]; 0.5 h) of the same compound?
Answer: Down

Question: What about the “Thbs2: Fold change in expression” value ([2]; 0.5 h, Down) of the same compound?
Answer: 3.98 fold

Question: And the “Acta1: Fold change in expression” value ([2]; 0.5 h, Up)?
Answer: 9.3 fold

Question: What about the “Tgm2: Fold change in expression” value ([2]; 0.5 h, Up) of the same compound?
Answer: 2.67 fold

Question: And the “Col17a1: Direction of regulation” value ([2]; 1 h)?
Answer: Up

Question: And the “Itga7: Direction of regulation” value ([2]; 1 h)?
Answer: Up

Question: What about the “Krt5: Direction of regulation” value ([2]; 1 h) of the same compound?
Answer: Up

Question: What about the “Krt10: Direction of regulation” value ([2]; 1 h) of the same compound?
Answer: Up

Question: What about the “Krt15: Direction of regulation” value ([2]; 1 h) of the same compound?
Answer: Up

Question: And the “Krt17: Direction of regulation” value ([2]; 1 h)?
Answer: Up

Question: And the “Krtdap: Direction of regulation” value ([2]; 1 h)?
Answer: Up

Question: What about the “LCe1a1: Direction of regulation” value ([2]; 1 h) of the same compound?
Answer: Up

Question: What about the “Lce1a2: Direction of regulation” value ([2]; 1 h) of the same compound?
Answer: Up

Question: And the “Lce1b: Direction of regulation” value ([2]; 1 h)?
Answer: Up

Question: And the “Lce1m: Direction of regulation” value ([2]; 1 h)?
Answer: Up

Question: And the “Lce1d: Direction of regulation” value ([2]; 1 h)?
Answer: Up

Question: What about the “Lor: Direction of regulation” value ([2]; 1 h) of the same compound?
Answer: Up

Question: And the “krt14: Direction of regulation” value ([2]; 1 h)?
Answer: Up

Question: And the “Col17a1: Fold change in expression” value ([2]; 1 h, Up)?
Answer: 2.7 fold

Question: And the “Itga7: Fold change in expression” value ([2]; 1 h, Up)?
Answer: 2.1 fold

Question: And the “Krt5: Fold change in expression” value ([2]; 1 h, Up)?
Answer: 2.8 fold

Question: And the “Krt10: Fold change in expression” value ([2]; 1 h, Up)?
Answer: 7 fold

Question: And the “Krt15: Fold change in expression” value ([2]; 1 h, Up)?
Answer: 2.3 fold

Question: And the “Krt17: Fold change in expression” value ([2]; 1 h, Up)?
Answer: 2.9 fold

Question: What about the “Krtdap: Fold change in expression” value ([2]; 1 h, Up) of the same compound?
Answer: 7 fold

Question: And the “LCe1a1: Fold change in expression” value ([2]; 1 h, Up)?
Answer: 2.7 fold

Question: And the “Lce1a2: Fold change in expression” value ([2]; 1 h, Up)?
Answer: 3 fold

Question: And the “Lce1b: Fold change in expression” value ([2]; 1 h, Up)?
Answer: 4.8 fold

Question: And the “Lce1m: Fold change in expression” value ([2]; 1 h, Up)?
Answer: 4.9 fold

Question: And the “Lce1d: Fold change in expression” value ([2]; 1 h, Up)?
Answer: 3.3 fold

Question: And the “Lor: Fold change in expression” value ([2]; 1 h, Up)?
Answer: 11.6 fold

Question: What about the “krt14: Fold change in expression” value ([2]; 1 h, Up) of the same compound?
Answer: 9.4 fold

Question: What about the “Col17a1: Direction of regulation” value ([2]; 2 h) of the same compound?
Answer: Up

Question: And the “Krt10: Direction of regulation” value ([2]; 2 h)?
Answer: Up

Question: And the “Lor: Direction of regulation” value ([2]; 2 h)?
Answer: Up

Question: And the “krt14: Direction of regulation” value ([2]; 2 h)?
Answer: Up

Question: And the “Col17a1: Fold change in expression” value ([2]; 2 h, Up)?
Answer: 2 fold

Question: What about the “Krt10: Fold change in expression” value ([2]; 2 h, Up) of the same compound?
Answer: 2.4 fold

Question: And the “Lor: Fold change in expression” value ([2]; 2 h, Up)?
Answer: 2.8 fold

Question: And the “krt14: Fold change in expression” value ([2]; 2 h, Up)?
Answer: 5.6 fold

Question: What about the “Acta1: Direction of regulation” value ([2]; 4 h) of the same compound?
Answer: Up

Question: What about the “CXCL1: Direction of regulation” value ([2]; 4 h) of the same compound?
Answer: Up

Question: What about the “Col17a1: Direction of regulation” value ([2]; 4 h) of the same compound?
Answer: Up

Question: And the “Egr1: Direction of regulation” value ([2]; 4 h)?
Answer: Up

Question: What about the “Krt10: Direction of regulation” value ([2]; 4 h) of the same compound?
Answer: Up

Question: What about the “Krt17: Direction of regulation” value ([2]; 4 h) of the same compound?
Answer: Up

Question: And the “Krt71: Direction of regulation” value ([2]; 4 h)?
Answer: Up

Question: And the “Krtdap: Direction of regulation” value ([2]; 4 h)?
Answer: Up

Question: And the “LCe1a1: Direction of regulation” value ([2]; 4 h)?
Answer: Up

Question: What about the “Tgm2: Direction of regulation” value ([2]; 4 h) of the same compound?
Answer: Down

Question: And the “krt14: Direction of regulation” value ([2]; 4 h)?
Answer: Up

Question: What about the “Tgm2: Fold change in expression” value ([2]; 4 h, Down) of the same compound?
Answer: 2 fold

Question: What about the “Acta1: Fold change in expression” value ([2]; 4 h, Up) of the same compound?
Answer: 30.3 fold

Question: And the “CXCL1: Fold change in expression” value ([2]; 4 h, Up)?
Answer: 12.1 fold

Question: And the “Col17a1: Fold change in expression” value ([2]; 4 h, Up)?
Answer: 3.2 fold

Question: What about the “Egr1: Fold change in expression” value ([2]; 4 h, Up) of the same compound?
Answer: 4.7 fold

Question: What about the “Krt10: Fold change in expression” value ([2]; 4 h, Up) of the same compound?
Answer: 8.6 fold

Question: What about the “Krt17: Fold change in expression” value ([2]; 4 h, Up) of the same compound?
Answer: 10 fold

Question: What about the “Krt71: Fold change in expression” value ([2]; 4 h, Up) of the same compound?
Answer: 3.2 fold

Question: What about the “Krtdap: Fold change in expression” value ([2]; 4 h, Up) of the same compound?
Answer: 3.8 fold

Question: What about the “LCe1a1: Fold change in expression” value ([2]; 4 h, Up) of the same compound?
Answer: 2.8 fold

Question: What about the “krt14: Fold change in expression” value ([2]; 4 h, Up) of the same compound?
Answer: 9.7 fold

Question: What about the “Acta1: Direction of regulation” value ([2]; 8 h) of the same compound?
Answer: Up

Question: And the “Egr1: Direction of regulation” value ([2]; 8 h)?
Answer: Up

Question: And the “Krt10: Direction of regulation” value ([2]; 8 h)?
Answer: Down

Question: What about the “Krt17: Direction of regulation” value ([2]; 8 h) of the same compound?
Answer: Down

Question: And the “Krt10: Fold change in expression” value ([2]; 8 h, Down)?
Answer: 2.1 fold

Question: What about the “Krt17: Fold change in expression” value ([2]; 8 h, Down) of the same compound?
Answer: 2 fold

Question: And the “Acta1: Fold change in expression” value ([2]; 8 h, Up)?
Answer: 8.5 fold

Question: And the “Egr1: Fold change in expression” value ([2]; 8 h, Up)?
Answer: 5.34 fold

Question: What about the “proliferation of HaCaT cells (MTT) vs control with no compound” value (HaCaT cells [3]) of the same compound?
Answer: increasing proliferation
